Assay results: US20220257725A1, “COMPOSITIONS AND METHODS FOR TREATING PEROXISOMAL BIOGENESIS DISORDERS” (University of Utah Research Foundation, priority 2019, published 2022)

T1: yeast Pex25 (yeast (S. cerevisiae), UniProt Q02969 1-394)
T1 sequence (looked up): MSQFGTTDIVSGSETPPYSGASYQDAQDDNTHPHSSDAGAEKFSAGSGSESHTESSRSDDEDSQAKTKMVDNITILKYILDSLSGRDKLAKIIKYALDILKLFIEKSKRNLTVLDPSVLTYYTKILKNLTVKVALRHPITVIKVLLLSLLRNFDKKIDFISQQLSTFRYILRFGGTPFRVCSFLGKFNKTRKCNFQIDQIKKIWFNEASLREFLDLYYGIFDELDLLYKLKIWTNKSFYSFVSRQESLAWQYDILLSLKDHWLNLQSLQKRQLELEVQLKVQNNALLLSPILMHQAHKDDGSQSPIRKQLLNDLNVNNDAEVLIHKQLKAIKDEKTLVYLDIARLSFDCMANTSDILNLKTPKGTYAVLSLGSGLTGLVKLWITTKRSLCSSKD

B1: yeast Pex11 (other, yeast (S. cerevisiae), UniProt Q12462 2-236, looked up)
chain: VCDTLVYHPSVTRFVKFLDGSAGREKVLRLLQYLARFLAVQNSSLLARQLQAQFTTVRKFLRFLKPLNHLQAAAKFYDNKLASDNVVRVCNVLKNIFFAAYLSLDQVNLLRILKVIPVTVLTGKKIPRWSNWCWLFGLLSGLAMDLRKIQTSHAQIAAFVKAKSQSQGDEHEDHKKVLGKAYQDRYTALRRLFWDAADSFIVLNNLGYLSSNEEYVALSGVVTSILGMQDMWKAT
B2: yeast Pex13-V5 (expressed by its endogenous promotor) (other, yeast (S. cerevisiae), UniProt P80667 1-386, looked up)
chain: MSSTAVPRPKPWETSASLEEPQRNAQSLSAMMTSNQQDSRPTEESNNSNSASESAPEVLPRPAALNSSGTYGESNTIPGIYGNSNYGIPYDNNPYSMNSIYGNSIGRYGYGGSYYGNNYGSFYGGGYGAGAGYGMNNGSGLGESTKATFQLIESLIGAVTGFAQMLESTYMATHNSFFTMISVAEQFGNLKEMLGSFFGIFAIMKFLKKILYRATKGRLGIPPKNFAESEGSKNKLIEDFQKFNDSGTINSNEKATRRKISWKPLLFFLMAVFGFPYLLNKFITKLQTSGTIRASQGNGSEPIDPSKLEFARALYDFVPENPEMEVALKKGDLMAILSKKDPLGRDSDWWKVRTKNGNIGYIPYNYIEIIKRRKKIEHVDDETRTH
notes: not shown: V5 tag
B3: yeast Pex14 (other, yeast (S. cerevisiae), UniProt P53112 2-341, looked up)
chain: SDVVSKDRKALFDSAVSFLKDESIKDAPLLKKIEFLKSKGLTEKEIEIAMKEPKKDGIVGDEVSKKIGSTENRASQDMYLYEAMPPTLPHRDWKDYFVMATATAGLLYGAYEVTRRYVIPNILPEAKSKLEGDKKEIDDQFSKIDTVLNAIEAEQAEFRKKESETLKELSDTIAELKQALVQTTRSREKIEDEFRIVKLEVVNMQNTIDKFVSDNDGMQELNNIQKEMESLKSLMNNRMESGNAQDNRLFSISPNGIPGIDTIPSASEILAKMGMQEESDKEKENGSDANKDDNAVPAWKKAREQTIDSNASIPEWQKNTAANEISVPDWQNGQVEDSIP

Key:
[1] = tested on: PEX3− patient fibroblasts; test: Electron microscopy of mitochondrial morphology; type: cell-based, human
Description: Representative images of the most observed mitochondrial morphology are shown. […] OCR (pmol/min/norm.unit) for cWT (wild-type), cWT+ATAD1 (wild-type expressing ATAD1) PEX3− (patient), PEX3−+ATAD1 (PEX3− expressing ATAD1), cWT-ATAD1 (wildtype with ATAD1 deletion), PEX3−ATAD1 (patient with ATAD1 deletion) cells plotted against time (XF96e Extracellular Flux Analyzer, Mito-Stress-Test.) Oligomycin A (1 μM), 0.15 μM FCCP and 1 μM rotenone+1 μM antimycin A (final concentrations) were sequentially delivered to the XF96e assay medium through injection ports in the sensor cartridge. n=2 (4+4=8 technical replicates). […] Statistical significance (Welch's test), p values are indicated as: ns (not significant), * p≤0.05, ** p≤0.01, *** p≤0.001, **** p≤0.0001. […] Statistical significance (Welch's test), p values are indicated as: ns (not significant), * p≤0.05, ** p≤0.01, *** p≤0.001, **** p≤0.0001. FIG. 5E show a bar graph representation of calculated respiratory spare capacity (=uncoupled respiration minus basal respiration) of cWT (wild-type), cWT+ATAD1 (wild-type expressing ATAD1) PEX3− (patient), PEX3−+ATAD1 (PEX3− expressing ATAD1), cWT-ATAD1 (wildtype with ATAD1 deletion), PEX3−ATAD1 (patient with ATAD1 deletion). Statistical significance (Welch's test), p values are indicated as: ns (not significant), * p≤0.05, ** p≤0.01, *** p≤0.001, **** p≤0.0001. […]

[2] = tested on: PEX3− patient fibroblasts; test: Unbiased whole cell lipidomics; type: cell-based, human; conditions: patient cell line with overexpression of ATAD1
Description: (§1) Representative images of the most observed mitochondrial morphology are shown. […] OCR (pmol/min/norm.unit) for cWT (wild-type), cWT+ATAD1 (wild-type expressing ATAD1) PEX3− (patient), PEX3−+ATAD1 (PEX3− expressing ATAD1), cWT-ATAD1 (wildtype with ATAD1 deletion), PEX3−ATAD1 (patient with ATAD1 deletion) cells plotted against time (XF96e Extracellular Flux Analyzer, Mito-Stress-Test.) Oligomycin A (1 μM), 0.15 μM FCCP and 1 μM rotenone+1 μM antimycin A (final concentrations) were sequentially delivered to the XF96e assay medium through injection ports in the sensor cartridge. n=2 (4+4=8 technical replicates). […] Statistical significance (Welch's test), p values are indicated as: ns (not significant), * p≤0.05, ** p≤0.01, *** p≤0.001, **** p≤0.0001. […] Statistical significance (Welch's test), p values are indicated as: ns (not significant), * p≤0.05, ** p≤0.01, *** p≤0.001, **** p≤0.0001. FIG. 5E show a bar graph representation of calculated respiratory spare capacity (=uncoupled respiration minus basal respiration) of cWT (wild-type), cWT+ATAD1 (wild-type expressing ATAD1) PEX3− (patient), PEX3−+ATAD1 (PEX3− expressing ATAD1), cWT-ATAD1 (wildtype with ATAD1 deletion), PEX3−ATAD1 (patient with ATAD1 deletion). Statistical significance (Welch's test), p values are indicated as: ns (not significant), * p≤0.05, ** p≤0.01, *** p≤0.001, **** p≤0.0001.
To complement the characterization with other readouts relevant to reflect important mitochondrial function, unbiased whole cell lipidomics was performed. […] Another readout of flourishing mitochondrial metabolism is the capacity of mitochondria to import […] phosphatidylserines (PSs) into phosphatidylethanolamines (PEs). […] The class of phospho-ether lipids (plasmalogens), precursors to myelin, seems to be unaffected (FIG. 5H).

[3] = tested on: PEX3− patient fibroblasts; test: Seahorse XF 96e Flux analyzer respiration (Mito-Stress-Test); type: cell-based, human
Description: as §1
Therefore, it was tested whether removal of the accumulated peroxins is able to restore mitochondrial respiration. To test the direct dependence of this phenotype with the expression levels of ATAD1, additional cell lines with genetic deletion of ATAD1 was generated. A Seahorse XF 96e Flux analyzer was used to measure respiration (FIG. 5B). A significant lower basal rate of respiration in the PEX3^− cell line was observed compared to the complemented wild-type cWT (FIGS. 5B, 5C). […] In the case that the expression level of ATAD1 is sufficient to cause the phenotype, it would be expected that a much more severe phenotype in the patient with an additional ATAD1 deletion. […]

[4] = tested on: PEX3 deficient (PEX3−) fibroblast cell line derived from a patient with Zellweger Syndrome; test: Live cell fluorescent imaging of peroxin-GFP localization with ATAD1 overexpression; type: cell-based, human
[5] = target: B2; test: BN-PAGE of digitonin-solubilised yeast mitochondrial membranes with complexome profiling (co-migration in a 150-180 kDa subcomplex)
[6] = target: T1, yeast Pex25; test: as above
[7] = target: B2; test: BN-PAGE of digitonin-solubilised yeast mitochondrial membranes with complexome profiling (co-migration)
Description: Gel was transferred to PVDF membrane and immunoblotted for PEX13^V5 (V5). […] Left panel represents the protein abundance in the wild-type, middle panel in pex19Δ and the right panel in pex19Δmsp1Δ.
Some peroxisomal matrix proteins were detected that have never been reported to be localized to the mitochondria before (FIG. 2 and FIG. 3A (summary cartoon)). Therefore, it was tested whether the enrichment of peroxins on mitochondria is a random accumulation or a structured event.

Molecule: ATAD1: human AAA-ATPase acting in mitochondrial protein quality control; overexpressed in patient fibroblasts
Share accounted as type 3 (mitochondria with fewer cristae) ([1]; PEX3−ATAD+ cells, patient >80% type 2, wild-type about 80% types 1 and 3): about 70% | Mitochondrial morphology (electron density, cristae) ([1]; patient cell line overexpressing ATAD1, electron microscopy): electron density recovers and cristae formation is partially detected | Cardiolipin levels [2]: normalizes to wild-type levels | Phosphatidylethanolamine (PE) levels [2]: slightly higher values than in wild-type | Phospho-ether lipids (plasmalogens) [2]: unaffected | Mitochondrial spare capacity (uncoupled minus basal respiration) ([3]; PEX3−ATAD+): recovered the mitochondrial spare capacity | Uncoupled respiration ([3]; PEX3−ATAD+ versus cWT, FCCP 0.15 μM): normalized to wild-type respiration | Basal mitochondrial respiration ([3]; PEX3−ATAD+ versus cWT, OCR): restored back to wild-type level | PEX13-GFP localization ([4]; PEX3−ATAD+ cells (ATAD1 overexpressed), Mitotracker far red counterstain): not stabilized in the mitochondrial outer membrane | PEX12-GFP distribution ([4]; PEX12-GFP transiently expressed, ATAD1 overexpressing patient cell line, compared with PEX13-GFP result): very similar distribution with a slightly milder effect

Molecule: B1
binding result [5]: binds

Molecule: B2
binding result [6]: binds

Molecule: B3
binding result [7]: binds
